Measured values published in EP3623369A1, “NOVEL MORPHOLINYL AMINE COMPOUNDS FOR THE TREATMENT OF AUTOIMMUNE DISEASE” (F. Hoffmann-La Roche AG, priority 2018, dated 2020).

Biological target: T1, hTLR7 (Homo sapiens, UniProt Q9NYK1)
T1 sequence (Q9NYK1 27-1049): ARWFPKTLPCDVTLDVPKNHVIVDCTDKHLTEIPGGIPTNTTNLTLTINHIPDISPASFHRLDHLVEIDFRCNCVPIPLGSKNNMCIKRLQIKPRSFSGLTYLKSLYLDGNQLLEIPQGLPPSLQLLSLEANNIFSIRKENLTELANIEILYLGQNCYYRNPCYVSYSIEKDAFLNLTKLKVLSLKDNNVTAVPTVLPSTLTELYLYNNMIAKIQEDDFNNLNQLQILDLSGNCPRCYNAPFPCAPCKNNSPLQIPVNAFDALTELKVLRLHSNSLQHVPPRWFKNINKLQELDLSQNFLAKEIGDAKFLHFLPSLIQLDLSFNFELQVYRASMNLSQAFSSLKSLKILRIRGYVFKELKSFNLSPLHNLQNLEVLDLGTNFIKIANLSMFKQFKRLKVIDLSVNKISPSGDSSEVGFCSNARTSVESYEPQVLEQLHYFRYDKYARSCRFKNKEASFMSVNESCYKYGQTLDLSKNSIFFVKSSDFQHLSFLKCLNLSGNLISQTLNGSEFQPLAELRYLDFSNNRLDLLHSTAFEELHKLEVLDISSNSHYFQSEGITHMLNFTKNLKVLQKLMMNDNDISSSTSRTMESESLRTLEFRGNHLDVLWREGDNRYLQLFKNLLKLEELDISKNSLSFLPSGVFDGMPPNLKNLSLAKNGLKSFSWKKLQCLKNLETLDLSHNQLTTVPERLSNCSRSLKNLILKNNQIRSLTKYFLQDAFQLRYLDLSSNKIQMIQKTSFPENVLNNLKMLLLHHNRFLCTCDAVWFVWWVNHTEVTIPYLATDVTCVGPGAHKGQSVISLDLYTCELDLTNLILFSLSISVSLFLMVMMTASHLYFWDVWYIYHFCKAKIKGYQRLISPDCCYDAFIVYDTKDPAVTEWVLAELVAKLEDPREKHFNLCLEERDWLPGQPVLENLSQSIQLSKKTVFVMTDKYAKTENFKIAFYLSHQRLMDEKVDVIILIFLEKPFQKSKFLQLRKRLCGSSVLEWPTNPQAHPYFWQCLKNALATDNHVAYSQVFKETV
Assay: HEK293-Blue-hTLR-7 cells assay (SEAP reporter, R848 stimulation)
Format: cell-based
Conditions: HEK293-Blue-hTLR7 cells, R848, 20 hrs; 0.003 is the lowest tested concentration; read-out: HEK/hTLR7 IC50
Experimental: The following tests were carried out in order to determine the activity of the compounds of formula (I) or (Ia) in HEK293-Blue-hTLR-7/8/9 cells assay.
HEK293-Blue-hTLR-7 cells assay:
A stable HEK293-Blue-hTLR-7 cell line was purchased from InvivoGen (Cat.#: hkb-htlr7, San Diego, California, USA). These cells were originally designed for studying the stimulation of human TLR7 by monitoring the activation of NF-κB. A SEAP (secreted embryonic alkaline phosphatase) reporter gene was placed under the control of the IFN-β minimal promoter fused to five NF-κB and AP-1-binding sites. The SEAP was induced by activating NF-κB and AP-1 via stimulating HEK-Blue hTLR7 cells with TLR7 ligands. Therefore the reporter expression was declined by TLR7 antagonist under the stimulation of a ligand, such as R848 (Resiquimod), for incubation of 20 hrs. The cell culture supernatant SEAP reporter activity was determined using QUANTI-Blue™ kit (Cat.#: rep-qb1, Invivogen, San Diego, Ca, USA) at a wavelength of 640 nm, a detection medium that turns purple or blue in the presence of alkaline phosphatase.
HEK293-Blue-hTLR7 cells were incubated at a density of 250,000∼450,000 cells/mL in a volume of 170 µL in a 96-well plate in Dulbecco's Modified Eagle's medium (DMEM) containing 4.5 g/L glucose, 50 U/mL penicillin, […], […], 2 mM L-glutamine, 10% (v/v) heat-inactivated fetal bovine serum with addition of 20 µL test compound in a serial dilution in the presence of final DMSO at 1% and 10 µL of 20uM R848 in above DMEM, perform incubation under 37 °C in a CO2 incubator for 20 hrs. Then 20 µL of the supernatant from each well was incubated with 180 µL Quanti-blue substrate solution at 37 °C for 2 hrs and the absorbance was read at 620∼655 nm using a spectrophotometer. The signalling pathway that TLR7 activation leads to downstream NF-κB activation has been widely accepted, and therefore similar reporter assay was modified for evaluating TLR7 antagonist.

Compound | IC50
C[C@@H]1CN(c2ccc(C#N)n3nccc23)C[C@H](CN2Cc3ccc(C4CCNC4)cc3C2)O1 (stereo partly drawn) [Example 9, 4-[(2R,6S)-2-methyl-6-[(5-pyrrolidin-3-ylisoindolin-2-yl)methyl]morpholin-4-yl]pyrazolo[1,5-a]pyridine-7-carbonitrile] | 195 nM
C[C@@H]1CN(c2ccc3c(c2)CN(C[C@H]2CN(c4ccc(C#N)c5ncccc45)C[C@@H](C)O2)C3)CCN1 [Example 62, 5-[(2R,6S)-2-methyl-6-[[5-[(3R)-3-methylpiperazin-1-yl]isoindolin-2-yl]methyl]morpholin-4-yl] quinoline-8-carbonitrile] | 26 nM
COCCN1CCN(c2ccc3c(c2)CN(C[C@H]2CN(c4ccc(C#N)c5nccnc45)C[C@@H](C)O2)C3)CC1 [Example 37, 8-[(2S,6R)-2-[[5-[4-(2-methoxyethyl)piperazin-1-yl]isoindolin-2-yl]methyl]-6-methyl-morpholin-4-yl]quinoxaline-5-carbonitrile] | 50 nM
C[C@@H]1CN(c2ccc(C#N)n3nccc23)C[C@H](CN2CCc3cnccc3C2)O1 [Example R1, 4-[(2S,6R)-2-(3,4-dihydro-1H-2,6-naphthyridin-2-ylmethyl)-6-methyl-morpholin-4-yl]pyrazolo[1,5-a]pyridine-7-carbonitrile, reference compound] | 550 nM
C[C@@H]1CN(c2ccc(C#N)c3ncccc23)C[C@H](CN2Cc3ccc(N4CC5(CCN5)C4)cc3C2)O1 [Example 55, 5-[(2S,6R)-2-[[5-(1,6-diazaspiro[3.3]heptan-6-yl)isoindolin-2-yl]methyl]-6-methyl-morpholin-4-yl]quinoline-8-carbonitrile] | 80 nM
C[C@@H]1CN(c2ccc(C#N)c3ncccc23)C[C@H](CN2Cc3ccc(N4CCN[C@@H](C)C4)cc3C2)O1 [Example 64, 5-[(2R,6S)-2-methyl-6-[[5-[(3S)-3-methylpiperazin-1-yl]isoindolin-2-yl]methyl]morpholin-4-yl]quinoline-8-carbonitrile] | 40 nM
C[C@@H]1CN(c2ccc(C#N)c3nccnc23)C[C@H](CN2Cc3ccc(N4C5CCC4CNC5)cc3C2)O1 [Example 41, 8-[(2S,6R)-2-[[5-(3,8-diazabicyclo[3.2.1]octan-8-yl)isoindolin-2-yl]methyl]-6-methyl-morpholin-4-yl]quinoxaline-5-carbonitrile] | 59 nM
C[C@@H]1CN(c2ccc(C#N)c3ncccc23)C[C@H](CN2Cc3cc(N4CCN(C)CC4)cc(F)c3C2)O1 [Example 69, 5-[(2S,6R)-2-[[4-fluoro-6-(4-methylpiperazin-1-yl)isoindolin-2-yl]methyl]-6-methyl-morpholin-4-yl]quinoline-8-carbonitrile] | 43 nM
C[C@@H]1CN(c2ccc(C#N)c3nccnc23)C[C@H](CN2Cc3ccc(N4CC5COCC(C4)N5)cc3C2)O1 [Example 49, 8-[(2R,6S)-2-methyl-6-[[5-(3-oxa-7,9-diazabicyclo[3.3.1]nonan-7-yl)isoindolin-2-yl]methyl]morpholin-4-yl]quinoxaline-5-carbonitrile] | 50 nM

Further compounds by falling IC50, results first:

IC50 | Compound
206 nM | C[C@@H]1CN(c2ccc(C#N)n3nccc23)C[C@H](CN2Cc3ccc(C4CCNCC4)cc3C2)O1 [Example 8, 4-[(2R,6S)-2-methyl-6-[[5-(4-piperidyl)isoindolin-2-yl]methyl]morpholin-4-yl]pyrazolo[1,5-a]pyridine-7-carbonitrile]
125 nM | C[C@@H]1CN(c2ccc3c(c2)CN(C[C@H]2CN(c4ccc(C#N)c5ncccc45)C[C@@H](C)O2)C3)C[C@@H](C)N1 (mixture of isomers) [Example 57, Trans-5-[(2R,6S)-2-methyl-6-[[5-[3,5-dimethylpiperazin-1-yl]isoindolin-2-yl]methyl]morpholin-4-yl]quinoline-8-carbonitrile]
85 nM | CCOC(=O)C1CNCCN1c1ccc2c(c1)CN(C[C@H]1CN(c3ccc(C#N)c4ncccc34)C[C@@H](C)O1)C2 (stereo partly drawn) [Example 50, Ethyl 1-[2-[[(2S,6R)-4-(8-cyano-5-quinolyl)-6-methyl-morpholin-2-yl]methyl]isoindolin-5-yl] piperazine-2-carboxylate]
59 nM | C[C@@H]1CN(c2ccc(C#N)c3ncccc23)C[C@H](CN2Cc3ccc(CN4CCCCC4)cc3C2)O1 [Example 74, 5-[(2R,6S)-2-methyl-6-[[5-(1-piperidylmethyl)isoindolin-2-yl]methyl]morpholin-4-yl]quinoline-8-carbonitrile]
47 nM | C[C@@H]1CN(c2ccc(C#N)c3ncccc23)C[C@H](CN2Cc3ccc(N4CCNC[C@@H]4CO)cc3C2)O1 [Example 82, 5-[(2S,6R)-2-[[5-[(2R)-2-(hydroxymethyl)piperazin-1-yl]isoindolin-2-yl]methyl]-6-methyl-morpholin-4-yl]quinoline-8-carbonitrile]
37 nM | C[C@@H]1CN(c2ccc(C#N)n3nccc23)C[C@H](CN2CCc3cc(N4CCN(C)CC4)ccc3C2)O1 [Example 15, 4-[(2R,6S)-2-methyl-6-[[6-(4-methylpiperazin-1-yl)-3,4-dihydro-1H-isoquinolin-2-yl]methyl]morpholin-4-yl]pyrazolo[1,5-a]pyridine-7-carbonitrile]
33 nM | C[C@@H]1CN(c2ccc(C#N)c3nccnc23)C[C@H](CN2Cc3ccc(N4CCN5CCCCC5C4)cc3C2)O1 (stereo partly drawn) [Example 40, 8-[(2S,6R)-2-[[5-(1,3,4,6,7,8,9,9a-octahydropyrido[1,2-a]pyrazin-2-yl)isoindolin-2-yl]methyl]-6-methyl-morpholin-4-yl]quinoxaline-5-carbonitrile]
23 nM | C[C@@H]1CN(c2ccc(Cl)c3nccnc23)C[C@H](CN2CCc3cc(N4CCNCC4)ccc3C2)O1 [Example 34, (2R,6S)-4-(8-chloroquinoxalin-5-yl)-2-methyl-6-[(6-piperazin-1-yl-3,4-dihydro-1H-isoquinolin-2-yl)methyl]morpholine]
18 nM | C[C@@H]1CN(c2ccc(C#N)c3ncccc23)C[C@H](CN2Cc3cc(N4CCNCC4)cc(F)c3C2)O1 [Example 59, 5-[(2S,6R)-2-[(4-fluoro-6-piperazin-1-yl-isoindolin-2-yl)methyl]-6-methyl-morpholin-4-yl]quinoline-8-carbonitrile]
10 nM | CC1CN(c2ccc3c(c2)CN(C[C@H]2CN(c4ccc(C#N)c5nccnc45)C[C@@H](C)O2)C3)CCN1 (stereo partly drawn) [Example 36, 8-[(2R,6S)-2-methyl-6-[[5-(3-methylpiperazin-1-yl)isoindolin-2-yl]methyl]morpholin-4-yl]quinoxaline-5-carbonitrile]
9 nM | C[C@@H]1CN(c2ccc(C#N)c3ncccc23)C[C@H](CN2Cc3ccc(N4CCNCC4C(F)F)cc3C2)O1 (stereo partly drawn) [Example 76, 5-[(2S,6R)-2-[[5-[2-(difluoromethyl)piperazin-1-yl]isoindolin-2-yl]methyl]-6-methyl-morpholin-4-yl]quinoline-8-carbonitrile]
8 nM | C[C@@H]1CN(c2ccc3c(c2)CN(C[C@H]2CN(c4ccc(C#N)c5nccnc45)C[C@@H](C)O2)C3)CCN1 [Example 65, 8-[(2R,6S)-2-methyl-6-[[5-[(3R)-3-methylpiperazin-1-yl]isoindolin-2-yl]methyl]morpholin-4-yl] quinoxaline-5-carbonitrile]
